Laboratory results from patent US11213508B2, “Compositions comprising urolithins and uses thereof for the stimulation of insulin secretion” (Centre National de la Recherche Scientifique (CNRS), priority 2013, dated 2022).
pEC50: −log10 of the molar value. Entries after “also recorded” stand apart in the source; their conditions may differ.

Columns and labels:
[1] = test system: INS-1 insulin-secreting β-cells; test: Glucose (8.3 mmol·L^−1)-stimulated insulin secretion in INS-1 cells (HTRF insulin assay); assay type: cell-based; conditions: for ability to amplify glucose-stimulated insulin secretion: blind screening, 2 and 20 μM; for % control response (glucose-stimulated insulin secretion): control = glucose alone; for degree of stimulation of insulin secretion: summary over the different insulin secretion conditions in INS-1 cells, 20 μmol·L^−1
Description: Cells were seeded in 24-well plates (4×10^5 cells per well) and were used for experiments after 5 days of culture.
(§1) Cells were incubated for 1 h (5% CO2, 37° C.) in KRB medium containing 8.3 mmol·L^−1 glucose (glucose-stimulated secretion) in the presence or absence of the compounds tested. At the end of the 1 h incubation period, the medium was sampled and stored at −20° C. until the insulin assay. Insulin concentration in cell supernatants was determined using the homogeneous time resolved fluorescence technology (HTRF), according to the manufacturer's instructions (HTRF insulin assay kit, Cisbio International, Bagnols-sur-Ceze, France). Briefly, two anti-insulin antibodies were used; one labelled with Eu^3+-Cryptate and one labelled with XL665 recognizing distinct epitopes. When these two fluorophores bind to insulin molecules, the two antibodies come into close proximity, allowing fluorescence resonance energy transfer (FRET) to occur between the Eu^3+-Cryptate and the XL665. This FRET increases proportionally with the insulin concentrations. All the experiments were performed at least in quadruplicate.
(§2) For the determination of insulin secretion, cells were incubated for 1 h (5% CO2, 37° C.) in KRB medium containing either 1.4 mmol·L^−1 glucose (low-glucose) or 8.3 mmol·L^−1 glucose (glucose-stimulated secretion) in the presence or absence of the compounds tested. At the end of the 1 h incubation period, mediums were sampled and stored at −20° C. until the insulin assay.

[2] = test system: INS-1 insulin-secreting β-cells; test: Exendin + glucose-stimulated insulin secretion in INS-1 cells; assay type: cell-based; conditions: 8.3 mmol·L^−1 glucose + 0.001 μmol·L^−1 exendin; for maximal response, stimulation as compared to exendin alone: 20
Description: (§3) The insulin-secreting cell line INS-1 (a gift from Professor C. B. Wollheim) was cultured in RPMI-1640, supplemented with 10% fetal calf serum (FCS), 100 U·mL^−1 penicillin, 100 μg·mL^−1 streptomycin, 2 mmol·L^−1 L-glutamine, 10 mmol·L^−1 HEPES, 1 mmol·L^−1 sodium pyruvate, and […] 2-mercaptoethanol, as previously described by Youl et al. (2010). Cells were seeded in 24-well plates (4×10^5 cells per well) and were used for experiments after 5 days of culture.
as §1, with “Before the treatment, RPMI medium was removed and the cells were washed twice with HEPES-balanced Krebs-Ringer bicarbonate buffer (KRB) containing (in mmol·L^−1): 123 NaCl, 5.4 KCl, 1.3 KH2PO4, 2.7 MgSO4, 2.9 CaCl2, 5 NaHCO3 and 20 HEPES, pH 7.5, with 2 g·L^−1 bovine serum albumin (KRB/BSA). Cells” for “Cells”
Material and methods were the same as described in example 1. For the determination of insulin secretion, cells were incubated for 1 h (5% CO2, 37° C.) in KRB medium containing 8.3 mmol·L^−1 glucose (glucose-stimulated condition) and exendin (0.001 μmol·L^−1) in the presence or absence of the compounds tested. Data were expressed as percent of exendin (0.001 μmol·L^−1)+glucose (8.3 mmol·L^−1)-stimulated insulin secretion (“control 100%”) (FIGS. 4A-D).

[3] = test system: INS-1 insulin-secreting β-cells; test: Insulin secretion in INS-1 cells under low-glucose (1.4 mmol·L^−1) condition; assay type: cell-based; conditions: 1.4 mmol·L^−1 glucose; maximal concentration tested 20
Description: as §3
as §1, with “Before the treatment, RPMI medium was removed and the cells were washed twice with HEPES-balanced Krebs-Ringer bicarbonate buffer (KRB) containing (in mmol·L^−1): 123 NaCl, 5.4 KCl, 1.3 KH2PO4, 2.7 MgSO4, 2.9 CaCl2, 5 NaHCO3 and 20 HEPES, pH 7.5, with 2 g·L^−1 bovine serum albumin (KRB/BSA). Cells” for “Cells”
as §2, with “Material and methods were the same as described in example 1. For” for “For”, “assay. Insulin concentration in cell supernatants was determined as described in Example 1.” for “assay.”

[4] = test system: rat isolated perfused pancreas; test: Insulin secretion in the rat isolated perfused pancreas; conditions: for AUC of insulin produced above the basal level: urolithins 10 μM
Description: Pancreas was isolated from male Wistar rats of 250-300 g body weight under pentobarbital anaesthesia (60 mg/kg i.p.). Previously described technique (Cadene et al., 1996) was used to isolate the pancreas from neighboring tissues. The organ was then transferred into a plastic chamber maintained at 37.5° C. Perfusion medium was Krebs-Ringer bicarbonate buffer containing 2 g/l bovine serum albumin and 5 mmol·L^−1 (non stimulant condition) or 8.3 mmol·L^−1 (stimulant condition) glucose, and continuously bubbled with a mixture of 95% O2/5% CO2. Infusion pressure was selected to provide a pancreatic outflow of 2.5 ml/min. The first sample was taken 30 min after initiation of perfusion to allow for an adaptation period. Two additional control samples were collected 10 and 15 min later, immediately followed by switching to the same buffer containing urolithins (10 μmol·L^−1). Pancreatic effluents were then collected at the following times (minutes): 17, 18, 19, 20, 21, 27, 32, 42. Pancreas was then washed using the same buffer in the absence of urolithin. Two additional samples were taken 5 and 15 min after urolithin withdrawal.
All samples were collected for 1 min allowing determinations of pancreatic effluent output, and immediately frozen for insulin assay (Cisbio HTRF method). Insulin output rate (ng/min) was calculated by multiplying the hormone concentration (ng/ml) in the effluent by the corresponding flow rate (ml/min).
Amplitude of stimulation of insulin secretion by urolithins was estimated by calculating the Area Under the Curve (AUC) of insulin produced above the basal level (trapezoidal rule). Before administration of urolithins, insulin secretion levels were 3.39±0.58 ng/min (n=14 pancreases) and 67.5±7.80 ng/min (n=15 pancreases), for 5 mmol·L^−1 and 8.3 mmol·L^−1 glucose, respectively.

[5] = test system: INS-1 insulin-secreting β-cells; test: Glibenclamide-stimulated insulin secretion in INS-1 cells; assay type: cell-based; conditions: for stimulation of insulin secretion in the presence of glibenclamide: 0 to 20 μmol·L^−1
Description: as §3
as §1, with “Before the treatment, RPMI medium was removed and the cells were washed twice with HEPES-balanced Krebs-Ringer bicarbonate buffer (KRB) containing (in mmol·L^−1): 123 NaCl, 5.4 KCl, 1.3 KH2PO4, 2.7 MgSO4, 2.9 CaCl2, 5 NaHCO3 and 20 HEPES, pH 7.5, with 2 g·L^−1 bovine serum albumin (KRB/BSA). Cells” for “Cells”
Material and methods were the same as described in example 1. For the determination of insulin secretion, cells were incubated for 1 h (5% CO2, 37° C.) in KRB medium containing 1.4 mmol·L^−1 glucose (low-glucose condition) and 0.01 μmol·L^−1 glibenclamide (glibenclamide-stimulated secretion), in the presence or absence of urolithins. At the end of the 1 h incubation period, the medium was sampled and stored at −20° C. until the insulin assay. Insulin concentration in cell supernatants was determined as described in Example 1.

[6] = compound 2 μM, 8.3 mmol·L^−1 glucose
[7] = compound 20 μM, 8.3 mmol·L^−1 glucose
[8] = 1.4 mmol·L^−1 glucose + 0.01 μmol·L^−1 glibenclamide

pEC50 [5, 8] | SMILES | ability to amplify glucose-stimulated insulin secretion ([1]; 8.3 mmol·L^−1 glucose) | % control response (glucose-stimulated insulin secretion) [1, 6] [%] | % control response (glucose-stimulated insulin secretion) [1, 7] [%] | degree of stimulation of insulin secretion [1] | raise of insulin secretion in the presence of exendin and glucose [2] | stimulation of insulin secretion in low-glucose condition [3] | AUC of insulin produced above the basal level [4] | stimulation of insulin secretion in the presence of glibenclamide [5] | concentration at which maximal effect was obtained [5, 8] [µmol/L] | active concentration ([1]; glucose-stimulated secretion condition, active at this concentration only) [µM] | maximal response, stimulation as compared to glibenclamide alone [5, 8] | stimulation of insulin secretion at the maximal concentration tested ([1]; 8.3 mmol·L^−1 glucose, control 100% = glucose alone) | maximal response, stimulation as compared to exendin alone [2] | effect on insulin secretion under non-stimulating glucose condition ([4]; 10 μmol·L^−1, 5 mmol·L^−1 glucose) | effect on insulin secretion under stimulating glucose condition ([4]; 10 μmol·L^−1, 8.3 mmol·L^−1 glucose) | lowest concentration inducing some stimulation of insulin secretion ([4]; stimulating glucose condition) [µM] | stimulation of glibenclamide-induced response ([5]; urolithin 5 μmol·L^−1, 1.4 mmol·L^−1 glucose + 0.01 μmol·L^−1 glibenclamide)
 | O=c1oc2cc(O)ccc2c2ccc(O)cc12 [Urolithin A, urolithin A] | able to amplify | 109.82 | 162.50 | about 160% | did not induce a significant raise of insulin secretion; also recorded: did not amplify exendin-stimulated insulin secretion | did not significantly stimulate insulin secretion; also recorded: does not stimulate insulin secretion | 2609.5 ng insulin secreted for 32 min | concentration-dependently stimulated insulin secretion | 5 |  |  |  |  |  |  |  | 
 | O=c1oc2cc(O)ccc2c2ccccc12 [Urolithin B, urolithin B] | able to amplify | 108.77 | 145.61 | 140% | did not induce a significant raise of insulin secretion; also recorded: did not amplify exendin-stimulated insulin secretion | induced some stimulation | 142.0 ng insulin secreted for 32 min | concentration-dependently stimulated insulin secretion |  | 20 | 130% |  |  |  |  |  | 
~5.30 | O=c1oc2cc(O)ccc2c2cc(O)c(O)cc12 [Urolithin C, urolithin C] | able to amplify | 107.14 | 194.64 | 185-200% | induced a significant concentration-dependent stimulation of insulin secretion | induced some stimulation | 9160.0 ng insulin secreted for 32 min | concentration-dependently stimulated insulin secretion |  |  | about 200% | about 200% | about 185% | had no effect | induced a major amplification | 1 | about 150%
 | O=c1oc2c(O)c(O)ccc2c2cc(O)c(O)cc12 [Urolithin D, urolithin D] | able to amplify | 88.79 | 158.62 | 135-155% | induced a significant concentration-dependent stimulation of insulin secretion | induced some stimulation | 387.5 ng insulin secreted for 32 min | concentration-dependently stimulated insulin secretion |  |  |  |  | 140% |  |  |  | 
